Results as given in ChEMBL document CHEMBL1201862, “PubChem BioAssay data set” (2004).
Active and inactive are the calls of the source.

Experiments:
Orexin receptor type 2 [1] = biological target: T1, Orexin receptor type 2 (Homo sapiens, UniProt O43614); experiment: Counterscreen assay for antagonists of the orexin 1 receptor (OX1R; HCRTR1): Homogeneous Time Resolved Fluorescence (HTRF)-based cell-based dose response assay for antagonists of the orexin 2 receptor (OX2R; HCRTR2), run by assay provider.; format: functional
T1 sequence (O43614 whole entry): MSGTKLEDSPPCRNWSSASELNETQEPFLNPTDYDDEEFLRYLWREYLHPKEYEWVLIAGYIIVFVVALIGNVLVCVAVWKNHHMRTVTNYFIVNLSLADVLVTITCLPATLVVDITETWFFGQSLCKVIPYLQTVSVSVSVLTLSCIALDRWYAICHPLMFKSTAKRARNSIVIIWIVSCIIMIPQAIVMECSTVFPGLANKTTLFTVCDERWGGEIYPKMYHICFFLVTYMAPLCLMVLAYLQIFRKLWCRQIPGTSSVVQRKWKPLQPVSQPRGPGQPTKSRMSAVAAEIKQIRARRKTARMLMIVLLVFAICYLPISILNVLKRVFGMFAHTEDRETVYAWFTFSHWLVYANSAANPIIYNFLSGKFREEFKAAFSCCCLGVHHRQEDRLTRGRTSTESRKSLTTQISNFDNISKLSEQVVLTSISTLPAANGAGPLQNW

[2] = biological target: T2, Orexin/Hypocretin receptor type 1 (Homo sapiens, UniProt O43613); experiment: Homogeneous Time Resolved Fluorescence (HTRF)-based cell-based high throughput dose response assay for antagonists of the orexin 1 receptor (OX1R; HCRTR1). [Related pubchem assays (depositor defined):AID434989, AID435008, AID463079, AID485270, AID492963, AID492964, AID492965, AID493232, AID504717, AID504718]; format: functional
T2 sequence (O43613 whole entry): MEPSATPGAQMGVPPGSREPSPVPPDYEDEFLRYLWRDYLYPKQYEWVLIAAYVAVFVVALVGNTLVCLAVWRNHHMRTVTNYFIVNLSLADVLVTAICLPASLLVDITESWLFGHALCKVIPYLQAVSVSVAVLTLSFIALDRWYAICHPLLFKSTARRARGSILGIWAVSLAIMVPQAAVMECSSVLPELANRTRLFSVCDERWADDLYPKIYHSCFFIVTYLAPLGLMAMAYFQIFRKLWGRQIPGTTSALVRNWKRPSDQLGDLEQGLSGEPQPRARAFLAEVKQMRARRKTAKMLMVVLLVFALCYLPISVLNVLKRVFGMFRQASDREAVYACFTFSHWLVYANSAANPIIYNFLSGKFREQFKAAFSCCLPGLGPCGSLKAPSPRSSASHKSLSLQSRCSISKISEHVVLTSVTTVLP

[3] = biological target: T2, Orexin/Hypocretin receptor type 1; experiment: Fluorescence-based cell-based high throughput dose response assay for antagonists of the orexin 1 receptor (OX1R; HCRTR1). [Related pubchem assays (depositor defined):AID434989, AID435008, AID463079, AID485270, AID492963, AID492964, AID492965, AID493232, AID504717, AID504718]; format: functional
[4] = (§1) Counterscreen for antagonists of the orexin 1 receptor (OX1R; HCRTR1): Fluorescence-based cell-based high throughput dose response assay to identify antagonists of the parental CHO cell line. [Related pubchem assays (depositor defined):AID434989, AID435008, AID463079, AID485270, AID492963, AID492964, AID492965, AID493232, AID504699, AID504701]; format: functional
Orexin receptor type 2 [5] = biological target: T1, Orexin receptor type 2; experiment: Counterscreen assay for antagonists of the orexin 1 receptor (OX1R; HCRTR1): Fluorescence-based cell-based dose response assay for antagonists of the orexin 2 receptor (OX2R; HCRTR2), run by assay provider.; format: functional
CHO-K1 = experiment: as §1, with “Homogeneous time resolved fluorescence (HTRF)-based” for “Fluorescence-based”, “cell-based” for “cell-based high throughput”, “CHO-K1” for “CHO”; format: functional; settings: Cricetulus griseus;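 note: potency for inhibition of ATP-stimulated IP1 production as antagonists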
HeLa = experiment: HeLa cell cytotoxicity, dose response, cytotoxicity control for MITF activator project, CellTiter-Glo luminescence, cherry-pick samples (AID 540259); format: functional, cell-based; settings: Homo sapiens
[6] = biological target: T3, Mitochondrial peptide methionine sulfoxide reductase (Bos taurus, UniProt P54149); format: functional;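 note: absorbance read-out, biochemical high-throughput dose-response screen for MsrA inhibitors, confirmatory; recombinant bovine MsrA coupled to E. coli TrxB with NADPH and selenocystamine; potency is for inhibitors of MsrA activity on DMSO substrate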
T3 sequence (P54149 whole entry): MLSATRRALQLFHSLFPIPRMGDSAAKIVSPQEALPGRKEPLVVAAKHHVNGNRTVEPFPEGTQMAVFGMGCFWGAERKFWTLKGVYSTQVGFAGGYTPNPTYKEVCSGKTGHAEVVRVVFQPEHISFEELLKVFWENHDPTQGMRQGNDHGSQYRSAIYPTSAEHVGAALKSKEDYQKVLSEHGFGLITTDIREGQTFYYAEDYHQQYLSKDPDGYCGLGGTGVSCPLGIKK

[7] = biological target: T4, Heat shock factor protein 1 (Mus musculus, UniProt P38532); experiment: HSF1 potentiators in luciferase reporter cells, confirmation, cell-based, NIH3T3, luminescence, dose retest (AID 435004); format: functional;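 note: stress induced by proteasome inhibitor MG132 added 30 min after compound; luciferase reporter driven by HSF1 response element in NIH3T3 cells; actives raise luminescence as potentiators of the MG132 stress response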
T4 sequence (P38532 whole entry): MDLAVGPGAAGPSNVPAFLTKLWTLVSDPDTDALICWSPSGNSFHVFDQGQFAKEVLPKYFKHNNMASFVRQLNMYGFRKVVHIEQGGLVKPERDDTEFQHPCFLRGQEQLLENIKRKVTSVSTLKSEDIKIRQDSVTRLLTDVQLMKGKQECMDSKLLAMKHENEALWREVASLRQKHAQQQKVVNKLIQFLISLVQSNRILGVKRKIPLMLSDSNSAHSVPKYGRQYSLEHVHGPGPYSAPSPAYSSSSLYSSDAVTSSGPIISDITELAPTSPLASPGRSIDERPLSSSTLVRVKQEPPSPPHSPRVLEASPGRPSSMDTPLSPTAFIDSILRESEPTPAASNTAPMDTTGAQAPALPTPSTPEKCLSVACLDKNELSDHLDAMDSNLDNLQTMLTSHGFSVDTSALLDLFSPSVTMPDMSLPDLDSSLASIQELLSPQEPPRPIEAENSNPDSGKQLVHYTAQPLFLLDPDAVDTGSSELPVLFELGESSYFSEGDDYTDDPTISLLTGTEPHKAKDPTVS

Vero = Vero cell cytotoxicity, cytotoxicity control for flavivirus capping enzyme inhibitors (AID 588742); format: functional; settings: Chlorocebus sabaeus
[8] = biological target: Glucose-6-phosphate 1-dehydrogenase (Homo sapiens, UniProt P11413); experiment: human G6PD enzyme inhibitors, dose response, selectivity assay for P. falciparum G6PD inhibitor project, biochemical, fluorescence (AID 504792); format: functional
[9] = Luminescence-based cell-based high throughput dose response assay to identify activators of the DAF-12 from the parasite S. stercoralis (ssDAF-12).; format: functional
H9c2 = experiment: cells; format: functional, cell-based; settings: Rattus norvegicus, H9c2, Myocardium;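 note: confirmatory concentration-response retest of ultra-high-throughput screening hits for modulation of myocardial damage; cell death induced by hydrogen peroxide oxidative stress; compound pretreatment for 60 min then peroxide exposure for 2 h; potency is for protecting the cells against peroxide damage rather than for killing them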

Sequence of Glucose-6-phosphate 1-dehydrogenase (P11413 whole entry): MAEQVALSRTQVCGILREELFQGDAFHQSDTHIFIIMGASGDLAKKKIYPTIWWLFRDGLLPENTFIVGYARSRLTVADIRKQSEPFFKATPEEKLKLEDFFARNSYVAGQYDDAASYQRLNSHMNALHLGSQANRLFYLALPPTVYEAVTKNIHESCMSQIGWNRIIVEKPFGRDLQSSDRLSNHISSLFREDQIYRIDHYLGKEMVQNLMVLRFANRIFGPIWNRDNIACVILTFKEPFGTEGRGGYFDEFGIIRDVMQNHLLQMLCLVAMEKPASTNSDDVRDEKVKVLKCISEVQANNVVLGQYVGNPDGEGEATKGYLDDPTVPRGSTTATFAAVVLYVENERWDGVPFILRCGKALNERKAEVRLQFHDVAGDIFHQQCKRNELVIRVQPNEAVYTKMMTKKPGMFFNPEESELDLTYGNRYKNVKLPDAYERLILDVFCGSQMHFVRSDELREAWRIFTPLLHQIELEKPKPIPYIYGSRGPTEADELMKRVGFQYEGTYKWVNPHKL

In the case of COc1cc(OC)c(-c2nc3ccccc3s2)cc1OC, the IC50 (Orexin receptor type 2 [1]) is reported as > 50 µM (inactive), the IC50 [2] is reported as 0.46 µM (active) and the IC50 [3] is reported as 5.47 µM (active). The IC50 [4] was > 49.7 µM (inactive), the IC50 (Orexin receptor type 2 [5]) was > 88.8 µM (inactive) and the IC50 (CHO-K1) was > 66.2 µM (inactive).
In the case of CC(C)(C)C(=O)Nc1nc2cc3c(cc2s1)OCO3, the AC50 (HeLa) is reported as 51.9 µM (active).
With N#CC1=C(N)Oc2c(O)cc3ccccc3c2C1c1ccsc1 (stereo not drawn) the IC50 [6] was 155 µM (inactive), the EC50 [7] was 41.5 µM (active) and the CC50 (Vero) was > 40 µM (active). For the same compound, the IC50 [8] was > 80 µM (inactive), the IC50 [9] was > 67.5 µM (inactive) and the IC50 (H9c2) was > 79 µM (inactive).
